Results from patent publication US20090263521A1, “COMPOSITION FOR THE TREATMENT OF CANCERS AND INHIBITION OF METASTASIS CONTAINING EXTRACTS OR FRACTIONS OF THE MAGNOLIA OBOVATA” (KOREA RESEARCH INSTITUTE OF BIOSCIENCE AND BIOTECHNOLOGY, priority 2008, published 2009).

System: human colon cancer cell line SW620
Assay: In vivo anticancer effect, SW620 transplanted nude mice
Set-up: species or system BALB/c nude mice
Procedure: Female SPF BALB/c nude mice purchased from Charles River, Japan, were used as test animals. They were at 6 weeks and weighed 14-17 g. Before being used for experiments, the test animals were adapted at least one week in a clean animal lab. Temperature of the animal lab was 21±2° C. and humidity was set at 55±5%. Light/dark cycle was automatically regulated as 12/12. The solid feeds for the test animals were radiation sterilized products (Polas International, Seoul, Korea). Drinking water was sterilized by autoclave. Feeds and drinking water were given freely.
For the cancer cell line, human colon cancer cell line SW620 purchased from ATCC, USA and stored at Korean Research Institute of Bioscience and Biotechnology was used. […] On the final day of culture, every cell was collected and counted and the final cell concentration was regulated to 1×10^7 cells/ml by adding saline.
SW620 cancer cells were hypodermically injected in the right armpit in-between the shoulder and the wall of chest by 0.3 ml at the concentration of 3×10^6 cells/mouse. […] Weight changes of the test animals were measured three times per week. Tumor volume was measured 7 times from day 5 to day 20 in every test animal. Precisely, the tumor volume was measured by measuring three dimensions of the tumor using Vernier Caliper and then calculated by the following formula: […]

weight loss (adriamycin administered positive control, p<0.001): 13.1%
SMILES: COc1cccc2c1C(=O)c1c(O)c3c(c(O)c1C2=O)C[C@@](O)(C(=O)CO)C[C@@H]3O[C@H]1C[C@H](N)[C@H](O)[C@H](C)O1 [adriamycin]
tumor growth inhibition (positive control, P<0.001): 58.0%
